For one experiment, the system named is N. gonorrhoeae FA19. The experiment can be described thus: Liquid broth MIC, N. gonorrhoeae FA19. It counts as cell-based. The settings on record: Neisseria gonorrhoeae; N. gonorrhoeae FA19, liquid broth; read-out: Minimum Inhibitory Concentration, N. gonorrhoeae FA19. The method, boiled down: (§1)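 Broth microdilution, 2-fold compound series; start inoculum 5×10^5 CFU/mL (OD600-adjusted, GC broth pH 7.2, Kellogg's suppl.). 40-42 h, 36° C, 5% CO2. MIC = lowest conc., no visible growth.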

The test system of a further experiment is E. coli AG100. The experiment can be described thus: Broth microdilution MIC, E. coli AG100 (wild-type parent). It counts as cell-based. Particulars: Escherichia coli; wild-type parent E. coli AG100, broth microdilution; read-out: MIC E. coli AG100. The method, boiled down:
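Broth microdilution in cation-supplemented Mueller-Hinton broth, 2-fold serial compound dilutions, inoculum 5×10^5 CFU/mL from 3-5 h log culture.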

A further experiment concerns E. coli AG100A. Briefly: microbe, parasite or virus in culture. The experiment is classed as cell-based. Particulars: Escherichia coli, read-out: MIC E. coli AG100A. A digest of the protocol: (§2)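 Colonies from Mueller Hinton II agar were grown 3-5 hours at 37° C in cation-supplemented broth, adjusted by OD600, then added to 2-fold compound dilutions at 5×10^5 CFU/mL. After 16-20 hours at 37° C, MICs were scored visually.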

In another experiment the test system is K. pneumoniae UMM. Briefly: microbe, parasite or virus in culture. The settings on record: Klebsiella pneumoniae; K. pneumoniae UMM producing SHV-5 and KPC-2; read-out: MIC K. pneumoniae UMM. The experiment is classed as cell-based. The method, boiled down:
as §2

For another experiment, the system named is E. coli D22. Briefly: microbe, parasite or virus in culture. It counts as cell-based. Particulars: Escherichia coli; hyper-permeable E. coli D22, broth microdilution; read-out: MIC E. coli D22. A digest of the protocol: as §2
The next experiment concerns K. pneumoniae SI-117. Briefly: microbe, parasite or virus in culture. The experiment is classed as cell-based. The settings on record: Klebsiella pneumoniae, SI117, read-out: MIC K. pneumoniae SI-117. The method, boiled down:
as §2

The subject of another experiment is E. coli 901C. Briefly: microbe, parasite or virus in culture. The experiment is classed as cell-based. Particulars: Escherichia coli; hyper-permeable E. coli 901C, broth microdilution; read-out: MIC E. coli 901C. The method, boiled down: as §2
The test system of the next experiment is N. gonorrhoeae WHO F. Briefly: Liquid broth MIC, N. gonorrhoeae WHO F. The settings on record: Neisseria gonorrhoeae; N. gonorrhoeae WHO F, liquid broth; read-out: Minimum Inhibitory Concentration, N. gonorrhoeae WHO F. The experiment is classed as cell-based. The method, boiled down:
as §1

A further experiment relates to K. pneumoniae 848844. The experiment can be described thus: microbe, parasite or virus in culture. The settings on record: Klebsiella pneumoniae; K. pneumoniae 848844 producing SHV-11 and KPC-2; read-out: MIC K. pneumoniae 848844. It counts as cell-based, Klebsiella pneumoniae. A digest of the protocol:
as §2

The next experiment relates to E. coli ATCC 25922. The experiment can be described thus: Broth microdilution MIC, E. coli ATCC 25922. It counts as cell-based. Particulars: Escherichia coli, ATCC25922; E. coli ATCC 25922, broth microdilution; read-out: MIC E. coli 25922. The method, boiled down:
as §2

Experiment [1] has as its system N. gonorrhoeae ATCC 49226. The experiment can be described thus: Liquid broth MIC, N. gonorrhoeae ATCC 49226. It counts as cell-based. The settings on record: Neisseria gonorrhoeae, ATCC49226; N. gonorrhoeae ATCC 49226, liquid broth; read-out: Minimum Inhibitory Concentration, N. gonorrhoeae ATCC 49226. A digest of the protocol: as §1

≈ marks a conversion by molar mass, not a printed value. Where only a bound is given, the exact number is not on record here.

For the compound `CCN1CCN(C(=O)NC(C(=O)N[C@H]2Cc3cccc(C(=O)O)c3OB2O)c2csc(N)n2)C(=O)C1=O` (stereo partly drawn) [Example 5, (3R)-3-(2-(2-aminothiazol-4-yl)-2-(4-ethyl-2,3-dioxopiperazine-1-carboxamido)acetamido)-2-hydroxy-3,4-dihydro-2H-benzo[e][1,2]oxaborinine-8-carboxylic acid], the MIC in the experiment with N. gonorrhoeae FA19 is 1 to 2 mg/L (≈ 1.89 to 3.77 µM); in the experiment on E. coli AG100, 8 to 16 mg/L; in the experiment on E. coli AG100A it was 2 to 4 mg/L; with K. pneumoniae UMM, 8 to 16 mg/L; with E. coli D22, 2 to 4 mg/L; with K. pneumoniae SI-117, 8 to 16 mg/L. The MIC is less than 0.25 mg/L with E. coli 901C; less than 0.125 mg/L in the experiment on N. gonorrhoeae WHO F; 32 to 64 mg/L with K. pneumoniae 848844; 8 to 16 mg/L with E. coli ATCC 25922; 1 to 2 mg/L (≈ 1.89 to 3.77 µM) in experiment [1].

`CCN1CCN(C(=O)NC(C(=O)N[C@H]2Cc3cccc(C(=O)O)c3OB2O)c2ccc(O)c(O)c2Cl)C(=O)C1=O` (stereo partly drawn) [Example 37, (3R)-3-(2-(2-chloro-3,4-dihydroxyphenyl)-2-(4-ethyl-2,3-dioxopiperazine-1-carboxamido)acetamido)-2-hydroxy-3,4-dihydro-2H-benzo[e][1,2]oxaborinine-8-carboxylic acid]: the MIC is 4 to 8 mg/L (≈ 6.96 to 13.9 µM) in the experiment with N. gonorrhoeae FA19; 32 to 64 mg/L with E. coli AG100; 2 to 4 mg/L with E. coli AG100A; 8 to 16 mg/L in the experiment on K. pneumoniae UMM; 0.5 to 1 mg/L with E. coli 901C; 1 to 2 mg/L (≈ 1.74 to 3.48 µM) in the experiment with N. gonorrhoeae WHO F. Moreover, the MIC in the experiment with E. coli ATCC 25922 was in the range of 32 to 64 mg/L; in [1], 4 to 8 mg/L (≈ 6.96 to 13.9 µM).

For `CCN1CCN(C(=O)NC(C(=O)N[C@H]2Cc3cccc(C(=O)O)c3OB2O)c2ccc(O)c(O)c2F)C(=O)C1=O` (stereo partly shown) [Example 70], the MIC in the experiment on N. gonorrhoeae FA19 lay within 1 to 2 mg/L (≈ 1.79 to 3.58 µM); in the experiment on E. coli AG100, 2 to 4 mg/L; in the experiment with E. coli AG100A, 0.5 to 1 mg/L; in the experiment with K. pneumoniae UMM it was 0.5 to 1 mg/L; in the experiment on E. coli D22 it was 2 to 4 mg/L; with K. pneumoniae SI-117, 8 to 16 mg/L. The MIC is 0.5 to 1 mg/L in the experiment with E. coli 901C; less than 0.125 mg/L in the experiment on N. gonorrhoeae WHO F; 8 to 16 mg/L in the experiment with K. pneumoniae 848844; 2 to 4 mg/L in the experiment with E. coli ATCC 25922; 0.25 to 0.5 mg/L (≈ 0.448 to 0.896 µM) in experiment [1].

Take `CCN1CCN(C(=O)NC(C(=O)N[C@H]2Cc3cccc(C(=O)O)c3OB2O)c2ccc(O)cc2F)C(=O)C1=O` (stereo partly drawn) [Example 87, (3R)-3-(2-(4-ethyl-2,3-dioxopiperazine-1-carboxamido)-2-(2-fluoro-4-hydroxyphenyl)acetamido)-2-hydroxy-3,4-dihydro-2H-benzo[e][1,2]oxaborinine-8-carboxylic acid]: the MIC in the experiment on N. gonorrhoeae FA19 was 4 to 8 mg/L (≈ 7.38 to 14.8 µM); in the experiment with N. gonorrhoeae WHO F, less than 0.125 mg/L; in experiment [1], 1 to 2 mg/L (≈ 1.84 to 3.69 µM).

On to `CCN1CCN(C(=O)NC(C(=O)N[C@H]2Cc3cccc(C(=O)O)c3OB2O)c2ccc(S(N)(=O)=O)cc2)C(=O)C1=O` (stereo partly drawn) [Example 102, (3R)-3-(2-(4-ethyl-2,3-dioxopiperazine-1-carboxamido)-2-(4-sulfamoylphenyl)acetamido)-2-hydroxy-3,4-dihydro-2H-benzo[e][1,2]oxaborinine-8-carboxylic acid], for which the MIC is 1 to 2 mg/L (≈ 1.7 to 3.4 µM) in the experiment on N. gonorrhoeae FA19; 8 to 16 mg/L with E. coli AG100; 2 to 4 mg/L in the experiment on E. coli AG100A; 32 to 64 mg/L in the experiment with K. pneumoniae UMM; less than 0.25 mg/L in the experiment on E. coli 901C; less than 0.125 mg/L in the experiment with N. gonorrhoeae WHO F. For the same compound, the MIC in the experiment with E. coli ATCC 25922 is 32 to 64 mg/L; in experiment [1], 1 to 2 mg/L (≈ 1.7 to 3.4 µM).

`NS(=O)(=O)c1ccc(C(NC(=O)N2CCN(CCF)C(=O)C2=O)C(=O)N[C@H]2Cc3cccc(C(=O)O)c3OB2O)cc1` (stereo partly drawn) [Example 103, (3R)-3-(2-(4-(2-fluoroethyl)-2,3-dioxopiperazine-1-carboxamido)-2-(4-sulfamoylphenyl)acetamido)-2-hydroxy-3,4-dihydro-2H-benzo[e][1,2]oxaborinine-8-carboxylic acid]: the MIC is 1 to 2 mg/L (≈ 1.65 to 3.3 µM) with N. gonorrhoeae FA19; 8 to 16 mg/L with E. coli AG100; 2 to 4 mg/L with E. coli AG100A; 32 to 64 mg/L in the experiment on K. pneumoniae UMM; less than 0.25 mg/L in the experiment on E. coli 901C; less than 0.125 mg/L in the experiment on N. gonorrhoeae WHO F. In addition, the results for the MIC (with E. coli ATCC 25922; in experiment [1]) were 32 to 64 mg/L and 1 to 2 mg/L (≈ 1.65 to 3.3 µM), respectively.

For the origin of these results see patent US12173018B2, “Penicillin-binding protein inhibitors” (priority 2018, dated 2024).
